Patent publication US20240287124A1, “PRODRUGS OF 4'-SUBSTITUTED NUCLEOSIDE REVERSE TRANSCRIPTASE INHIBITORS” (Merck Sharp & Dohme LLC, priority 2023, published 2024)
≈ marks a conversion by molar mass, not a printed value. Read-outs that look alike come from different tables or passages of the source.

What was measured:
[1] = Aqueous solubility in PBS, pH 7.4; assay type: physicochemical; conditions: pH 7.4, aqueous buffer, thermodynamic from solid, pH 7.4 phosphate buffered saline, 24 hours, amorphous or crystalline material, read-out: Aqu. Solubility
Procedure, shortened: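 Excess solid suspended at 0.5 mg/mL in PBS pH 7.4 and stirred 24 hours. Filtrate (0.45 μm) diluted 1:1 with ACN:H2O and quantified by UPLC against a standard curve; residual solid phase checked by XRPD and PLM.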

[2] = Plasma stability in frozen human plasma; assay type: in vitro ADME; conditions: frozen human plasma at 37° C., 0-3 hr; read-out: T1/2 Human Plasma (converted)
Procedure: Plasma stability of the compounds was evaluated in frozen human plasma at 37° C. in a 10% CO2 environment. The stability of the analyte was assessed by determining the percentage of drug loss over the course of 0, 0.25, 0.5, 1, and 3 hr. In addition, the appearance of Compound A was determined for the same time course. Percent of drug loss as based on ratio with internal standard. Analyte concentrations were measured by LC/MS/MS. Linear regression was performed with log transformed percent of average TO values and linear time values. The elimination rate constant (ke) was calculated from the slope of this regression line and the half-life (T½) calculated based on the elimination rate constant.

[3] = tested on: HIV-1 wild-type (R8) virus; assay: Viral KINetics in Green cells (VIKING) assay, HIV-1 replication in MT4-GFP reporter cells; assay type: cell-based; conditions: Human immunodeficiency virus 1, 10% normal human serum, MT4-GFP cells, HIV-1 wild-type (R8); read-out: Viking (10% NHS), IC50
Procedure, shortened: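 MT4-GFP cells infected overnight with HIV-1 R8 at MOI ~0.01, then added to compound plates in RPMI with 10% normal human serum; 10-point 3-fold dilutions (typically 4 μM-0.2 nM). Green cells counted at ~48 h and 72 h; reproductive ratio (72 h/48 h) gave % inhibition, IC50 by 4-parameter fit.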

Row | Compound | solubility at 24 h ([1]; phosphate buffered saline) [µg/mL] | half-life [2] [h] | IC50 [3] [nM] | solubility at 24 h [1] [µg/mL]
1 | C#C[C@]1(CO)O[C@@H](n2ccc3c(N)nc(Cl)nc32)C[C@@H]1OC(=O)OC(C)C [Example 1, (2R,3S,5R)-5-(4-amino-2-chloro-7H-pyrrolo[2,3-d]pyrimidin-7-yl)-2-ethynyl-2-(hydroxymethyl)tetrahydrofuran-3-yl isopropyl carbonate] | 42 (≈ 106 µM) | 19.1 | 74 | 
2 | C#C[C@]1(CO)O[C@@H](n2ccc3c(N)nc(Cl)nc32)C[C@@H]1OC(=O)C(C)C [Example 2, (2R,3S,5R)-5-(4-amino-2-chloro-7H-pyrrolo[2,3-d]pyrimidin-7-yl)-2-ethynyl-2-(hydroxymethyl)tetrahydrofuran-3-yl isobutyrate] | 136 (≈ 359 µM) | 48.4 | 41 | 
3 | C#C[C@]1(CO)O[C@@H](n2ccc3c(N)nc(Cl)nc32)C[C@@H]1OC(=O)CCCC [Example 3, (2R,3S,5R)-5-(4-amino-2-chloro-7H-pyrrolo[2,3-d]pyrimidin-7-yl)-2-ethynyl-2-(hydroxymethyl)tetrahydrofuran-3-yl pentanoate] | 27 (≈ 68.7 µM) | 16.7 | 3.7 | 
4 | C#C[C@]1(CO)O[C@@H](n2ccc3c(N)nc(Cl)nc32)C[C@@H]1OC(=O)c1ccccc1 [Example 5, (2R,3S,5R)-5-(4-amino-2-chloro-7H-pyrrolo[2,3-d]pyrimidin-7-yl)-2-ethynyl-2-(hydroxymethyl)tetrahydrofuran-3-yl benzoate] | < 1 | 57.7 | 35 | 
5 | C#C[C@]1(COC(=O)c2ccccc2)O[C@@H](n2ccc3c(N)nc(Cl)nc32)C[C@@H]1OC(=O)c1ccccc1 [Example 6, (2R,3S,5R)-5-(4-amino-2-chloro-7H-pyrrolo[2,3-d]pyrimidin-7-yl)-2-((benzoyloxy)methyl)-2-ethynyltetrahydrofuran-3-yl benzoate] | < 1 | 1.1 | 44 | 
6 | C#C[C@]1(COC(=O)CCCC)O[C@@H](n2ccc3c(N)nc(Cl)nc32)C[C@@H]1OC(=O)CCCC [Example 7, (2R,3S,5R)-5-(4-amino-2-chloro-7H-pyrrolo[2,3-d]pyrimidin-7-yl)-2-ethynyl-2-((pentanoyloxy)methyl)tetrahydrofuran-3-yl pentanoate] | < 1 | 0.036 | 2.9 | 
7 | C#C[C@]1(CO[P@@](=O)(N[C@@H](C)C(=O)OC(C)C)Oc2ccccc2)O[C@@H](n2ccc3c(N)nc(Cl)nc32)C[C@@H]1O [Example 8, Isopropyl ((S)-(((2R,3S,5R)-5-(4-amino-2-chloro-7H-pyrrolo[2,3-d]pyrimidin-7-yl)-2-ethynyl-3-hydroxytetrahydrofuran-2-yl)methoxy)(phenoxy)phosphoryl)-L-alaninate] |  | 13.3 | 42 | 304 (≈ 526 µM)
8 | C#C[C@]1(COC(=O)c2ccccc2)O[C@@H](n2ccc3c(N)nc(Cl)nc32)C[C@@H]1O [Example 9, ((2R,3S,5R)-5-(4-amino-2-chloro-7H-pyrrolo[2,3-d]pyrimidin-7-yl)-2-ethynyl-3-hydroxytetrahydrofuran-2-yl)methyl benzoate] | 182 (≈ 441 µM) | 0.026 | 2.8 | 
9 | C#C[C@]1(COC(=O)C(C)C)O[C@@H](n2ccc3c(N)nc(Cl)nc32)C[C@@H]1O [Example 11, ((2R,3S,5R)-5-(4-amino-2-chloro-7H-pyrrolo[2,3-d]pyrimidin-7-yl)-2-ethynyl-3-hydroxytetrahydrofuran-2-yl)methyl isobutyrate] | 285 (≈ 752 µM) | 0.042 | 1.9 | 
10 | C#C[C@]1(COC(=O)OCc2cccnc2)O[C@@H](n2ccc3c(N)nc(Cl)nc32)C[C@@H]1CC(=O)CCCc1ccccc1 [Example 173] | < 1 |  | 6.2 | 
11 | C#C[C@]1(COC(=O)OCc2ccccc2)O[C@@H](n2ccc3c(N)nc(Cl)nc32)C[C@@H]1OC(=O)OCc1cccnc1 [Example 174] | < 1 |  | 13 | 
12 | C#C[C@]1(CO)O[C@@H](n2ccc3c(N)nc(Cl)nc32)C[C@@H]1OC(=O)CC1CCCCC1 [Example 177] | < 1 |  | 8.5 | 
13 | C#C[C@]1(CO)O[C@@H](n2ccc3c(N)nc(Cl)nc32)C[C@@H]1OC(=O)CCCOC(C)=O [Example 178] | 143 (≈ 327 µM) |  | 3.8 | 
14 | C#C[C@]1(CO)O[C@@H](n2ccc3c(N)nc(Cl)nc32)C[C@@H]1OC(=O)CCC [Example 179] | 27 (≈ 71.3 µM) |  | 11 | 
15 | C#C[C@]1(CO)O[C@@H](n2ccc3c(N)nc(Cl)nc32)C[C@@H]1OC(C)=O [Example 180] | 257 (≈ 733 µM) |  | 27 | 
16 | C#C[C@]1(CO)O[C@@H](n2ccc3c(N)nc(Cl)nc32)C[C@@H]1OC(=O)Cc1ccc(Br)cc1 [Example 181] | < 1 |  | 4 | 
17 | C#C[C@]1(COC(=O)CC2CCCCC2)O[C@@H](n2ccc3c(N)nc(Cl)nc32)C[C@@H]1O [Example 182] | 124 (≈ 286 µM) |  | 3.1 | 
18 | C#C[C@]1(CO)O[C@@H](n2ccc3c(N)nc(Cl)nc32)C[C@@H]1OC(=O)CCCC[C@@H]1SC[C@@H]2NC(=O)N[C@@H]21 [Example 184] | 161 (≈ 301 µM) |  | 57 | 
19 | C#C[C@]1(COC(=O)CCCCC)O[C@@H](n2ccc3c(N)nc(Cl)nc32)C[C@@H]1OC(C)=O [Example 185] | 4.2 (≈ 9.36 µM) |  | 17 | 
20 | C#C[C@]1(COC(=O)CCCCC)O[C@@H](n2ccc3c(N)nc(Cl)nc32)C[C@@H]1OC(=O)CC [Example 188] | 2.4 (≈ 5.18 µM) |  | 17 | 
21 | C#C[C@]1(COC(=O)CCCC)O[C@@H](n2ccc3c(N)nc(Cl)nc32)C[C@@H]1OC(=O)OC [Example 189] | 23 (≈ 51 µM) |  | 19 | 

The next lines start with results.

Row | solubility at 24 h ([1]; phosphate buffered saline) [µg/mL] | half-life [2] [h] | Compound | IC50 [3] [nM] | solubility at 24 h [1] [µg/mL]
22 | < 1 |  | C#C[C@]1(COC(=O)CCCC[C@@H]2SC[C@@H]3NC(=O)N[C@@H]32)O[C@@H](n2ccc3c(N)nc(Cl)nc32)C[C@@H]1OC(=O)CCCc1ccccc1 [Example 190] | 6.5 | 
23 | 1.2 (≈ 2.47 µM) |  | C#C[C@]1(COC(=O)OCc2ccccc2)O[C@@H](n2ccc3c(N)nc(Cl)nc32)C[C@@H]1OC(C)=O [Example 193] | 29 | 
24 | 2.3 (≈ 4.48 µM) |  | C#C[C@]1(COC(=O)OCc2ccccc2)O[C@@H](n2ccc3c(N)nc(Cl)nc32)C[C@@H]1OC(=O)CCC [Example 194] | 17 | 
25 | < 1 |  | C#C[C@]1(CO)O[C@@H](n2ccc3c(NC(=O)CCCCCCCCC)nc(Cl)nc32)C[C@@H]1O [Example 197] | 29 | 
26 | 51 (≈ 119 µM) |  | C#C[C@]1(CO)O[C@@H](n2ccc3c(NC(=O)Cc4ccccc4)nc(Cl)nc32)C[C@@H]1O [Example 199] | 230 | 
27 | 307 (≈ 696 µM) |  | C#C[C@]1(CO)O[C@@H](n2ccc3c(NC(=O)CCc4ccccc4)nc(Cl)nc32)C[C@@H]1O [Example 200] | 155 | 
28 | 1.2 (≈ 1.46 µM) |  | C#C[C@]1(COC(=O)OCCCCC[C@@H]2SC[C@@H]3NC(=O)N[C@@H]32)O[C@@H](n2ccc3c(N)nc(Cl)nc32)C[C@@H]1OC(=O)OCCCCC[C@@H]1SC[C@@H]2NC(=O)N[C@@H]21 [Example 207] | 21 | 
29 | < 1 |  | C#C[C@]1(COC(=O)OCc2ccccc2)O[C@@H](n2ccc3c(N)nc(Cl)nc32)C[C@@H]1OC(=O)CCCCC [Example 210] | 2.9 | 
30 | < 1 |  | C#C[C@]1(COC(=O)OCc2ccccc2)O[C@@H](n2ccc3c(N)nc(Cl)nc32)C[C@@H]1OC(=O)OCCCC [Example 212] | 4.8 | 
31 | < 1 |  | C#C[C@]1(COC(=O)OCc2ccccc2)O[C@@H](n2ccc3c(N)nc(Cl)nc32)C[C@@H]1OC(=O)OCCCCCCCC [Example 213] | 7.9 | 
32 | < 1 |  | C#C[C@]1(COC(=O)OCc2ccccc2)O[C@@H](n2ccc3c(N)nc(Cl)nc32)C[C@@H]1OC(=O)OCc1ccccc1 [Example 214] | 4.7 | 
33 | < 1 |  | C#C[C@]1(COC(=O)OCCCC)O[C@@H](n2ccc3c(N)nc(Cl)nc32)C[C@@H]1OC(=O)OCC [Example 216] | 21 | 
34 | 70 (≈ 115 µM) |  | C#C[C@]1(COC(=O)OCc2cc[nH]c(=O)c2)O[C@@H](n2ccc3c(N)nc(Cl)nc32)C[C@@H]1OC(=O)OCc1cc[nH]c(=O)c1 [Example 225] | 13 | 
35 | 19 (≈ 29.7 µM) |  | C#C[C@]1(COC(=O)OCc2ccn(C)c(=O)c2)O[C@@H](n2ccc3c(N)nc(Cl)nc32)C[C@@H]1OC(=O)OCc1ccn(C)c(=O)c1 [Example 226] | 13 | 
36 | < 1 |  | C#C[C@]1(COC(=O)Cc2ccc(Br)cc2)O[C@@H](n2ccc3c(N)nc(Cl)nc32)C[C@@H]1OC(=O)Cc1ccc(Br)cc1 [Example 227] | 12 | 
